Results taken from patent US12122787B2, “Fused pyridone compound, and preparation method therefor and use thereof” (SHANGHAI JEMINCARE PHARMACEUTICALS CO., LTD, priority 2019, dated 2024).
pIC50: −log10 of the molar value. Where two headings read alike, the source gives them in different places.

Tests used:
[1] = In vivo pharmacokinetic evaluation in mice by intravenous injection and oral administration; conditions: male ICR mice
Experimental: In this experimental embodiment, in vivo pharmacokinetic evaluation was performed in mice by intravenous injection and oral administration.
Experimental methods and conditions: Male ICR mice were given a single dose of 1 mg/Kg (intravenous injection, solvent 5% DMSO+15% Solutol+80% saline) and 5 mg/Kg (intragastric administration, solvent 1% Tween80/2% HPMC/97% water) of the compound to be tested, respectively; 5 min, 15 min, 30 min, 1 hour, 2 hours, 4 hours, 6 hours, 8 hours, 24 hours after administration, blood was collected from the orbital vein, and each sample was collected at approximately 0.20 mL, anticoagulated with sodium heparin, placed on ice after collection, and centrifuged within 1 hour to separate the plasma for measurement. Plasma drug concentration in plasma was detected by liquid chromatography tandem mass spectrometry (LC/MS/MS) to calculate pharmacokinetic parameters.

[2] = test system: phosphorylated ERK (Thr202/Tyr204) in NCI-H358 cells expressing mutant RAS(G12C); test: Inhibition of RAS-mediated signal transduction: phosphorylated ERK ELISA in NCI-H358 cells; type: cell-based; conditions: NCI-H358 cells, 2 hours of treatment, pERK normalized by Janus Green B, read-out: p-ERK IC50 (NCI H358)
[3] = test system: MIA PaCa2 cells expressing KRAS-G12C; test: Growth inhibition of tumor cell line expressing KRAS-G12C (Cell Titer Glo), MIA PaCa2; type: cell-based; conditions: MIA-Paca2, 72 hours
Experimental: (§1) The ability of the compounds of the present disclosure to inhibit the growth of cells expressing KRAS-G12C was evaluated by measuring the cell viability and calculating the GI50 values.
(§2) The tumor cell line NCI-H358 (ATCC catalogue number CRL-5807) expressing KRAS-G12C was cultured in RPMI medium supplemented with 10% fetal bovine serum and penicillin/streptomycin, and the tumor cell line MIA PaCa2 (ATCC CRL-1420) expressing KRAS-G12C was cultured in DMEM medium supplemented with 10% fetal bovine serum, 2.5% horse serum, and penicillin/streptomycin.
(§3) Cells NCI-H358 and MIA-Paca2 were inoculated into black transparent bottom 384-well plate (PerkinElmer catalogue number 6007460) with cell density of 1000 and 800 respectively, and the cells were allowed to adhere to the wall overnight (8-12 hours). After the cells adhered to the wall, the experimental group was added with the compound of the present disclosure diluted 5 times the concentration of the working solution (final concentration containing 0.1% dimethyl sulfoxide, i.e. DMSO); the control group was added with the same dilution as the experimental group (final concentration containing 0.1% DMSO). After 72 hours, Cell Titer Glo reagent (Promega catalogue number G7572) was used to detect ATP content according to the instruction method to determine the amount of cell proliferation. The brief operation steps were as follows: the cell plate was taken out and kept at normal temperature for equilibrium for 30 minutes; Cell Titer Glo reagent with the same volume as the culture was added; the culture plate was placed on a shaker for shaking and cracking for 2 minutes; the culture plate was left to stand at room temperature for 10 minutes; then the light signal value was read by microplate reader EnVision (PerkinElmer).
(§4) Data from all experimental groups were used to calculate the respective percent inhibition using the DMSO group, and the GI50 was calculated using the data processing software GraphPad to analyze the inhibition rates produced by the 9 compound dose concentrations diluted at ⅓-fold ratio.

[4] = test system: NCI-H358 cells expressing KRAS-G12C; test: Growth inhibition of tumor cell line expressing KRAS-G12C (Cell Titer Glo), NCI-H358; type: cell-based
Experimental: as §1, §2, §3, §4

[5] = intragastric administration 5 mg/kg vs intravenous 1 mg/kg
[6] = intragastric administration 5 mg/kg, plasma
[7] = intravenous administration 1 mg/kg, plasma
[8] = mouse, po, intragastric administration 5 mg/kg, plasma
[9] = mouse, intravenous administration 1 mg/kg, plasma

Row | GI50 [3] [µM] | GI50 ([4]; NCI-H358, 72 hours) [µM] | GI50 ([3]; Homo sapiens, MIA PaCa-2, 72 h) [µM] | GI50 ([4]; Homo sapiens, NCI-H358, 72 h) [µM] | Compound | pIC50 [2] | pIC50 ([2]; Homo sapiens, NCI-H358, 2 h) | also measured
1 | 0.031 | 0.005 |  |  | C=CC(=O)N1CC2COc3c(c4cc(F)c(-c5c(O)cccc5F)c(F)c4n(-c4c(C)ccnc4C(C)C)c3=O)N2CC1C (single isomer, unassigned) [Compound 3B-2] | 8.22 |  | F (%) [1, 5]: 17.01%; AUCinf [1, 6]: 1984.18 ng·h/mL; Cmax [1, 6]: 746.67 ng/mL; T1/2 [1, 6]: 3.96 h; AUCinf [1, 7]: 2333.44 ng·h/mL; Cl [1, 7]: 7.14 mL/min/kg; T1/2 [1, 7]: 5.99 h; Vz [1, 7]: 3.7066 L/kg
2 | 0.003 | 0.005 |  |  | C=CC(=O)N1C[C@@H]2C(=O)N(CCN(C)C)c3c(c4cc(Cl)c(-c5c(F)cccc5OC)c(F)c4n(-c4c(C)ccnc4C(C)C)c3=O)N2C[C@H]1C (atropisomer, axis not shown) [Compound 27C] | 8.40 |  | F (%) [1, 5]: 20.30%; AUCinf [1, 6]: 526.88 ng·h/mL; Cmax [1, 6]: 133.67 ng/mL; T1/2 [1, 6]: 1.78 h; AUCinf [1, 7]: 519.01 ng·h/mL; Cl [1, 7]: 32.11 mL/min/kg; T1/2 [1, 7]: 1.76 h; Vz [1, 7]: 4.89344 L/kg
3 |  |  | 0.392 | 0.066 | C=CC(=O)N1C[C@@H]2CN(CCC(C)O)c3c(c4cc(F)c(-c5c(O)cccc5F)c(F)c4n(-c4c(C)ccnc4C(C)C)c3=O)N2C[C@H]1C (stereo partly drawn) [Compound 37A] |  | 7.15 | 
4 |  |  | 0.152 | 0.147 | C=CC(=O)N1C[C@@H]2C(=O)N(CCN(C)C)c3c(c4cc(Cl)c(-c5c(F)cccc5OC)c(F)c4n(-c4c(C)ccnc4C(C)C)c3=O)N2C[C@H]1C (atropisomer, axis not shown) [Compound 27A] |  | 7.06 | 
5 | 0.007 | 0.003 |  |  | C=CC(=O)N1C[C@@H]2C(=O)N(C)c3c(c4cc(Cl)c(-c5c(O)cccc5F)c(F)c4n(-c4c(C)ncnc4C(C)C)c3=O)N2C[C@H]1C (atropisomer, axis not shown) [Compound 49A-1] | 8.30 |  | 
6 | 1.59 | 0.413 |  |  | C=CC(=O)N1C[C@@H]2C(=O)N(C)c3c(c4cc(F)c(-c5c(O)cccc5F)c(F)c4n(-c4c(C(C)C)ncnc4C(C)C)c3=O)N2C[C@H]1C [Compound 20B] | 6.58 |  | 
7 |  |  |  |  | C=CC(=O)N1CCN(c2nc(=O)n(-c3c(C)ccnc3C(C)C)c3nc(-c4c(O)cccc4F)c(F)cc23)[C@@H](C)C1 [AMG 510] |  |  | bioavailability ([1]; mouse, plasma, oral, intragastric administration 5 mg/kg vs intravenous 1 mg/kg): 17.6%; AUC(0-inf) [1, 8]: 155 ng·h/mL; half-life [1, 8]: 0.57 h; Cmax ([1]; mouse, po, intragastric administration 5 mg/kg, plasma, read-out: Cmax): 177 ng/mL; AUC(0-inf) [1, 9]: 176 ng·h/mL; clearance [1, 9]: 94.6 mL/min/kg; half-life [1, 9]: 0.26 h; Vd ([1]; mouse, intravenous administration 1 mg/kg, plasma, read-out: Vz): 2.16 L/kg
8 |  |  | 0.496 | 0.184 | C=CC(=O)N1C[C@@H]2CN(C)c3c(c4cc(F)c(-c5c(O)cccc5F)nc4n(-c4ccccc4C(C)C)c3=O)N2C[C@H]1C [Compound 10A] |  | 7.20 | 
9 | 0.025 | 0.012 |  |  | C=CC(=O)N1C[C@@H]2C(=O)N(C)c3c(c4cc(Cl)c(-c5ccc(F)c6nc(N)sc56)nc4n(-c4c(C)ccnc4C(C)C)c3=O)N2C[C@H]1C (single isomer, unassigned) [Compound 56B] | 7.96 |  | 
10 | 0.117 | 0.085 |  |  | C=CC(=O)N1C[C@@H]2C(=O)N(CCN(C)C)c3c(c4cc(Cl)c(-c5c(F)cccc5OC)c(F)c4n(-c4c(C)ccnc4C(C)C)c3=O)N2C[C@H]1C (atropisomer, axis not shown) [Compound 27D] | 6.91 |  | 
11 | 0.119 | 0.042 |  |  | C=CC(=O)N1CC2C(=O)Nc3c(c4cc(F)c(-c5c(O)cccc5F)c(F)c4n(-c4c(C)ccnc4C(C)C)c3=O)N2CC1C (single isomer, unassigned) [Compound 22A-2] | 7.27 |  | 
12 |  |  | 0.328 | 0.148 | C=CC(=O)N1C[C@@H]2C(=O)N(C)c3c(c4cc(F)c(-c5c(O)cccc5F)nc4n(-c4ccccc4C(C)C)c3=O)N2C[C@H]1C (atropisomer, axis not shown) [Compound 7B] |  | 7.01 | 
13 | 0.166 | 0.027 |  |  | C=CC(=O)N1C[C@@H]2COc3c(c4cc(F)c(-c5c(O)cccc5F)c(F)c4n(-c4c(C)ccnc4C(C)C)c3=O)N2C[C@H]1C (atropisomer, axis not shown) [Compound 3B-1] | 7.59 |  | 
14 |  |  | 0.056 | 0.062 | C=CC(=O)N1C[C@@H]2C(=O)N(CCO)c3c(c4cc(F)c(-c5c(O)cccc5F)c(F)c4n(-c4c(C)ccnc4C(C)C)c3=O)N2C[C@H]1C [Compound 40A] |  | 7.28 | 
15 |  |  | 2.41 | 0.523 | C=CC(=O)N1C[C@@H]2COc3c(c4cc(Cl)c(-c5c(O)cccc5F)c(F)c4n(C)c3=O)N2C[C@H]1C [Compound 4A] |  | 6.80 | 
16 |  |  | 0.235 | 0.032 | C=CC(=O)N1C[C@@H]2CN(CCO)c3c(c4cc(F)c(-c5c(O)cccc5F)c(F)c4n(-c4c(C)ccnc4C(C)C)c3=O)N2C[C@H]1C [Compound 36A-1] |  | 7.80 | 
17 | 0.407 | 0.232 |  |  | C=CC(=O)N1CC2C(=O)N(CCN(C)C)c3c(c4cc(F)c(-c5c(O)cccc5F)c(F)c4n(-c4c(C)ccnc4C(C)C)c3=O)N2CC1C (stereo not drawn) [Compound 24D] | 6.61 |  | 
18 | 0.039 | 0.008 |  |  | C=CC(=O)N1C[C@@H]2COc3c(c4cc(F)c(-c5c(O)cccc5F)c(F)c4n(-c4c(C)ccnc4C(C)C)c3=O)N2C[C@H]1C [Compound 3B] | 8.10 |  | 
